Experimental data reported in article PMC2875737, “Determination of drug-like properties of a novel antileishmanial compound: In vitro absorption, distribution, metabolism, and excretion studies” (Indian Journal of Pharmacology, 2009).
≈ marks a conversion by molar mass, not a printed value. Where “and” joins values, the source holds several entries; their conditions need not be identical. Equal entries are not always repeated. Structures can show the parent of a compound that is named as a salt. Blank lines part the entries; values can stand above or below the compound they belong to.

Tests used:
Leishmania donovani [1] = settings: cited from earlier work
[2] = Plasma protein binding by equilibrium dialysis; settings: human
Procedure: The binding of compound to human plasma was determined using equilibrium dialysis with 6-hour incubation with constant shaking at 37°C as per the method described by Kaplita and Liu.[4] The initial concentration of the compound used was 10 μM (DMSO ≤1%). Quantitations were done by HPLC.

human plasma protein = test system: human plasma protein; set-up: method as in PMID 14567798, PMID 11841071; settings: cited from earlier work
[3] = set-up: method as in PMID 14567798, PMID 11841071; settings: PBS pH 7.4; cited from earlier work
physchem = settings: for solubility at 2 h: 25 °C, pH 7.4, aqueous buffer, kinetic from dmso stock
Procedure: A 4 μl of 25 mM stock (DMSO) of S-4 was diluted to 200 μl with PBS (pH 7.4) and incubated at 25°C for 2 hours with constant shaking. The undissolved compound, if any, was filtered through the PVDF membrane filter (Millipore, MA). To 120 μl of the filtrate, 80 μl of acetonitrile was added and mixed thoroughly. The concentration of S-4 in the filtrate was determined spectrophotometrically from linearity (5-400μM) of the compound prepared in PBS containing 40% acetonitrile. The observed solubility result was multiplied by 200/120 to account for the acetonitrile addition in the test filtrate.

[4] = cited from earlier work
[5] = Distribution coefficient Log D in cyclohexane/PBS pH 7.4; type: physicochemical; settings: PBS pH 7.4, average of three experiments
Procedure: Log D in cyclohexane/PBS was performed following the similar method as done for Log D in octanol/PBS. Here, 5 mM compound stock was used to prevent precipitation problem with this system and volumes of cyclohexane were 150, 200, 400, and 800 μl.

[6] = PAMPA standards; cited from earlier work
[7] = set-up: method as in PMID 14567798, PMID 11841071; settings: cited from earlier work
[8] = Distribution coefficient (Log D) in octanol/PBS pH 7.4
[9] = Parallel artificial membrane permeability assay (PAMPA); type: in vitro ADME
Procedure: Millipore acceptor and donor plate (Cat No: MAPB310 and MASSACCEPTOR) were used in the study. […] Incubation was carried out for 16 hours at room temperature in a water-saturated chamber to avoid evaporation from donor wells. […] To a 200 μl acceptor sample, a 100 μl donor solution was added, mixed properly, and this mixture was termed as “equilibrium.” The absorbance of the equilibrium was also determined. Five standard compounds of different permeability (high: […] (1) Calculation: […] where C = (VD × VA)/[(VD + VA)× Area (cm^2) × porosity × time (seconds)] Where VD = volume of donor (ml), VA = volume of acceptor (ml). A linear graph was plotted with observed and reported values for the standard drugs. The experimental method was considered valid for permeability ranking if linear correlation coefficient (R^2) was more than 0.95.

Leishmania donovani [10] = test system: Leishmania donovani; set-up: method as in ref 11, 12 = [11]; PMID 11937327; doi:10.1016/s0968-0896(02)00046-9; 11 Sahu NP Pal C Mandal NB Banerjee S Raha M Kundu AP Synthesis of a novel quinoline derivative, 2-(2-Methylquinolin-4ylamino)-N-phenylacetamide: A potential antileishmanial agent Bioorg Med Chem 2002 || [12]; 12 Sahu NP Mondal NB Banerjee S Raha R Chakraborti G Basu A Indian patent No. 191818 2004; settings: cited from earlier work
rat liver microsomes = test: Metabolism by liver microsomal enzymes; type: in vitro ADME; settings: rat liver microsomes 0.5 mg protein/ml, 10 μM, 1 hour, 37°C, NADPH regeneration system; ± SEM
Procedure: Ethical clearance was obtained from Animal Ethics Committee of Indian Institute of Chemical Biology for use of animals for the present study. […] The % stability (% compound remaining after metabolism) was calculated as follows:
(3) % Compound remaining=100×(peak area of 1 hour sampl/peak area of 0 hour sample)
For 0 hour sample, the compound was added after addition of ice-cold acetonitrile and then vortexed, followed by centrifugation as mentioned above.

[11] = set-up: method as in ref 11 = [11]; PMID 11937327; doi:10.1016/s0968-0896(02)00046-9; 11 Sahu NP Pal C Mandal NB Banerjee S Raha M Kundu AP Synthesis of a novel quinoline derivative, 2-(2-Methylquinolin-4ylamino)-N-phenylacetamide: A potential antileishmanial agent Bioorg Med Chem 2002; settings: cited from earlier work
[12] = Chemical stability in PBS pH 7.4, simulated gastric fluid and simulated intestinal fluid; type: physicochemical
Procedure: A 100-μM solution of S-4 was prepared in phosphate buffered saline (PBS), pH 7.4, from a stock of 25 mM in DMSO and was kept at 25°C for 24 hours. Percentage stability was determined based on chromatographic peak area of the sample kept for 24 hours and that of 0 hour (freshly prepared and injected) sample. All the samples were prepared in triplicate.
Similar studies were carried out at 37°C replacing PBS with simulated gastric fluid (SGF) and simulated intestinal fluid (SIF) which were prepared following United States Pharmacopoeia, and stability was checked for upto 2 hours for SGF and 4 hours for SIF.

[13] = simulated gastric fluid (SGF), 37°C, 2 hours
[14] = simulated intestinal fluid (SIF), 37°C, 4 hours

- fraction unbound at 6 h, 10 μM [2]: 0.493
Structure (SMILES): CN(Cc1cnc2nc(N)nc(N)c2n1)c1ccc(C(=O)N[C@@H](CCC(=O)O)C(=O)O)cc1 [Methotrexate]
- Permeability ranking of standard compounds [6]: very low
- Percentage of plasma protein binding, reported value (human plasma protein): 35-57%

- logD [8]: -0.25
Structure (SMILES): COCCc1ccc(OCC(O)CNC(C)C)cc1 (centres unmarked) [Metoprolol tartrate]
- Log D octanol/PBS, reported value [7]: −0.30

- fraction unbound at 6 h, 10 μM ([2]; plasma): 0.852
Structure (SMILES): CNC(=C[N+](=O)[O-])NCCSCc1ccc(CN(C)C)o1 [Ranitidine HCl]
- Percentage of plasma protein binding, reported value (human plasma protein): 10-19%

- Papp at 16 h, 250 μM ([9]; PBS pH 7.4 (5% DMSO), 16 hours, room temperature, ± SEM, read-out: Log Pe (converted)): 2.95 ×10⁻⁶ cm/s
- Permeability ranking ([9]; ranking against standard drugs): medium
- fraction unbound at 6 h, 10 μM [2]: 0.212
- logD hydrocarbon water ([5]; cyclohexane/PBS): -1.33
- % Parent compound remaining, result (rat liver microsomes): 36.07% and 36.07 ± 4.15%
- Stability (% remaining) ([12]; 100 μM in PBS pH 7.4, 25°C, 24 hours, HPLC): 99.16 ± 1.32%
- remaining at 24 h, 100 μM ([12]; phosphate buffered saline, pH 7.4, 100 μM in PBS pH 7.4, 25°C, 24 hours, HPLC): > 95%
- Stability (% remaining) [12, 13]: 101.19± 0.76%
- remaining at 2 h, 100 μM [12, 13]: > 95%
- Stability (% remaining) [12, 14]: 97.70 ± 0.15%
- remaining at 4 h, 100 μM [12, 14]: > 95%
- solubility at 2 h (physchem; PBS): 300 ± 6.42 µM (≈ 87.3 µg/mL)
- logD [8]: 0.54
Structure (SMILES): Cc1cc(NCC(=O)Nc2ccccc2)c2ccccc2n1 [S-4, 2-(2-methylquinolin-4-ylamino)-N-phenylacetamide]
- Reduction of parasite burden in spleen and liver compared with sodium antimony gluconate (Leishmania donovani [10]): significantly more effective than sodium antimony gluconate
- Toxicity to different organs [11]: no alarming sign to different organs tested

- fraction unbound at 6 h, 10 μM ([2]; plasma): 0.0179
- logD hydrocarbon water [5]: -1.28
Structure (SMILES): CC(=O)CC(c1ccccc1)c1c(O)c2ccccc2oc1=O (centres unmarked) [Warfarin]
- Permeability ranking of standard compounds [6]: medium
- Log D cyclohexane/PBS, reported value [4]: −1.31
- Percentage of plasma protein binding, reported value (human plasma protein): 99%

Continued, compound first:

Structure (SMILES): O=C(Nc1ccccc1Cc1nc2ccccc2cc1-c1c[nH]c2ccccc12)C(Cl)Cl [2-(2′′-dichloroacetamidobenzyl)-3-(3′-indoyl)-quinoline]
- Antileishmanial activity (Leishmania donovani [1]): significant antileishmanial activity

Structure (SMILES): Cn1c(=O)c2c(ncn2C)n(C)c1=O [Caffeine]
- fraction unbound at 6 h, 10 μM [2]: 0.593
- Percentage of plasma protein binding, reported value (human plasma protein): 29-43%

Structure (SMILES): O=C(O)Cc1ccccc1Nc1c(Cl)cccc1Cl [Diclofenac Sodium]
- Solubility, reported value [3]: > 400 µM
- solubility at 2 h (physchem): > 400 µM

Structure (SMILES): CC/C(=C(/CC)c1ccc(O)cc1)c1ccc(O)cc1 [Diethylstilbesterol]
- Solubility, reported value [3]: 5 to 20 µM
- Solubility (physchem; pH 7.4): 18.94 ± 1.00 µM (≈ 5.08 µg/mL)

Structure (SMILES): O=C(CCCN1CCC(O)(c2ccc(Cl)cc2)CC1)c1ccc(F)cc1 [Haloperidol]
- Solubility, reported value [3]: 40 to 63 µM
- Log D cyclohexane/PBS, reported value [4]: 0.46
- logD hydrocarbon water ([5]; cyclohexane/PBS): 0.52
- solubility at 2 h (physchem): 48.5 ± 3.21 µM (≈ 18.2 µg/mL)

Structure (SMILES): CC(C)NCC(O)COc1cccc2ccccc12.Cl (centres unmarked) [Propranolol HCl]
- Permeability ranking of standard compounds [6]: high
- Percentage of plasma protein binding, reported value (human plasma protein): 80-93%

Structure (SMILES): NC(=O)N1c2ccccc2C=Cc2ccccc21 [carbamazepine]
- Permeability ranking of standard compounds [6]: high
